{
  "source": "patent US12202805B2",
  "about": "“Process for preparing (5S)-{[2-(4-carboxyphenyl)ethyl] |2-(2-{|3-chloro-4'-(trifluoromethyl)biphenyl-4-yl]methoxy}phenyl)ethyl]aminol-5,6,7,8-tetrahydroquinoline-2-carboxylic acid and its crystalline forms for use as pharmaceutically active compound” (Bayer Aktiengesellschaft, priority 2021, dated 2025)",
  "tested_on": "sGC",
  "assay": "E-2.1 inhalative administration in healthy male subjects for 7 days: cGMP in blood samples",
  "format": "in vivo, human",
  "method": "E-2.1 Inhalative Administration of sGC Activators in Healthy Male Subjects for 7 Days—cGMP and Bronchodilatation\nHealthy White male subjects, aged 18 to 45 years and with a body mass index (BMI) above/equal 18.5 and below/equal 29.9 kg/m2 were treated in a clinical pharmacological phase I study on seven days with inhaled once daily doses of 480 μg or 1000 μg or 2000 μg (2 capsules of 1000 μg) (nominal dose) of dry powder formulations comprising example 2 or Placebo. The subjects inhaled the drug powder from capsules (see under C-1, e.g. tables 22 and 23) inserted into a handheld inhalation device by one deep inhalative breath. The dry powder formulation of the drug is dispersed into the airstream and fine particles are transported into the deep parts of the lung where it is intended to cause a vasodilation of the blood vessels in PH patients for a substantial reduction of increased blood pressure in the central pulmonary blood vessels in PAH patients or other subtypes of PH. This effect cannot be shown in subjects with healthy lungs. In addition inhaled drug causes a dilation of the bronchial airways and thus also improves disease states of lung diseases in PH patients with pathological bronchoconstriction. This effect was measured via bodyplethysmography as reduction of Specific Airway Resistance in healthy subjects. After the deep inhalative breath the subjects hold breath for 2 seconds, so that the dry powder drug condenses from the airstream onto the surface of the deeper lung areas where it is deposited close to its site of intended pharmacological action. The drug dissolutes over the day and equilibrates the lung via lining fluid.\nDrug activity in healthy men was controlled in the healthy subjects by analysing blood samples for cGMP, the immediate product of sGC pharmacological activation prior after the first and after the last drug inhalation of the 7 days treatment in comparison to measurements on the pretreatment day for all doses.",
  "data": [
    {"smiles": "O=C(O)c1ccc(CCN(CCc2ccccc2OCc2ccc(-c3ccc(C(F)(F)F)cc3)cc2Cl)[C@H]2CCCc3nc(C(=O)O)ccc32)cc1", "note": "[example 2, (5S)—{[2-(4-Carboxyphenyl)ethyl][2-(2-{[3-chloro-4′-(trifluoromethyl)biphenyl-4-yl]methoxy}phenyl)-ethyl]amino}-5,6,7,8-tetrahydroquinoline-2-carboxylic acid as Monohydrate II]", "values": [
      {"measurement": "cGMP over time (mean)", "setting": "480 μg, 8 D 00 H 00 M", "value": "7.20 ± 3.23", "unit": "nmol/L"},
      {"measurement": "cGMP over time (mean)", "setting": "480 μg, 8 D 12 H 00 M", "value": "6.20 ± 2.00", "unit": "nmol/L"},
      {"measurement": "cGMP over time (mean)", "setting": "480 μg, −0 D 09 H 00 M", "value": "5.60 ± 1.08", "unit": "nmol/L"},
      {"measurement": "cGMP over time (mean)", "setting": "480 μg, −1 D 02 H 00 M", "value": "5.40 ± 1.41", "unit": "nmol/L"},
      {"measurement": "cGMP over time (mean)", "setting": "1000 μg, 5 D 00 H 00 M", "value": "8.50 ± 2.13", "unit": "nmol/L"},
      {"measurement": "cGMP over time (mean)", "setting": "1000 μg, −0 D 22 H 00 M", "value": "5.10 ± 1.46", "unit": "nmol/L"},
      {"measurement": "cGMP over time (mean)", "setting": "2000 μg, 2 D 00 H 00 M", "value": "6.40 ± 2.09", "unit": "nmol/L"},
      {"measurement": "cGMP over time (mean)", "setting": "2000 μg, 3 D 00 H 00 M", "value": "10.00 ± 3.51", "unit": "nmol/L"},
      {"measurement": "cGMP over time (mean)", "setting": "2000 μg, 8 D 00 H 00 M", "value": "16.00 ± 5.77", "unit": "nmol/L"},
      {"measurement": "cGMP over time (mean)", "setting": "2000 μg, 9 D 12 H 00 M", "value": "9.40 ± 3.10", "unit": "nmol/L"},
      {"measurement": "peak mean±SD cGMP value", "setting": "first profile day, 1000 μg inhaled", "value": "11.69 ± 1.86", "unit": "nmol/L"}
    ]}
  ]
}
